Our source for the EC50 values is patent publication US11976064B2, “Toll-like receptor agonists” (Pfizer Inc., priority 2019, dated 2024).

The target of the assay is T1, human toll like receptor 8 (hTLR8) (Homo sapiens, UniProt Q9NR97).
T1 construct: host or cells: HEK293 (HEK-Blue hTLR8)
T1 sequence (Q9NR97 27-1041): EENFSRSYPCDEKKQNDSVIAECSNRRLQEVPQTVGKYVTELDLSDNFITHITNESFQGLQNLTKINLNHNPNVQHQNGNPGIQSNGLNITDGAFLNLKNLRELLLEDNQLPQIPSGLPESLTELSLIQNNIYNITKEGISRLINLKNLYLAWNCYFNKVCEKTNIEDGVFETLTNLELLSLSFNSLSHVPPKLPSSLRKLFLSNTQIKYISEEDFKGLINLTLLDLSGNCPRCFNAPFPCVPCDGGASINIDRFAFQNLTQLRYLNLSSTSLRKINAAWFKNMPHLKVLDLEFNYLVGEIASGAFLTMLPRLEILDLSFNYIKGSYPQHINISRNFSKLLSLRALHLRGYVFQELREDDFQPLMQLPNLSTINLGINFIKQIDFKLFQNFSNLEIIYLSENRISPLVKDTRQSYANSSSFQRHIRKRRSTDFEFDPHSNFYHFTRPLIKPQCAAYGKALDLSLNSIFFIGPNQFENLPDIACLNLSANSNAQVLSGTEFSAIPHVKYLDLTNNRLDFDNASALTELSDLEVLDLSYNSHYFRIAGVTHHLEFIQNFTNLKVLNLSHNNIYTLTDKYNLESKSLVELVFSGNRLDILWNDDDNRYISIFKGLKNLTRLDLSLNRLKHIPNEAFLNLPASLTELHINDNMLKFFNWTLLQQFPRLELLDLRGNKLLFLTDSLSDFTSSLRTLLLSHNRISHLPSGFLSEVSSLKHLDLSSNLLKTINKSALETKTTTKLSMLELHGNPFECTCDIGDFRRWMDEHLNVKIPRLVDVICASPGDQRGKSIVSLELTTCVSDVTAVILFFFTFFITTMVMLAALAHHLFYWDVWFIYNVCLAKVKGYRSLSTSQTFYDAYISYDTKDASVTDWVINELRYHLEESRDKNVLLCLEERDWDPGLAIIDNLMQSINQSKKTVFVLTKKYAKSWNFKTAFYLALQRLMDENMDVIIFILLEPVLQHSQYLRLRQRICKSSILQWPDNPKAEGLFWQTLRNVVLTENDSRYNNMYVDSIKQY
Kind of assay: hTLR8 cell functional assay (HEK-Blue hTLR8 SEAP reporter). The format is cell-based. As to conditions: HEK293 cells stably overexpressing hTLR8, SEAP reporter; geometric mean when tested more than once. The method, then:
The Examples described were tested for biological activity in functional cellular assays using HEK293 cells stably overexpressing human TLR7 or TLR8. The assays tested for the ability of each Example to stimulate secretion of interferon alpha (IFNα) in human primary blood mono nuclear cells (PBMC).
To determine the ability of each Example to activate the human toll like receptor 7 (hTLR7) or human toll like receptor 8 (hTLR8), cell-based reporter systems were utilized. HEK293 cells stably overexpressing either hTLR7 or hTLR8 along with a reporter gene containing an optimized secreted embryonic alkaline phosphatase gene (SEAP), under the control of the IFN-b minimal promoter fused to five NF-κB and AP-1-binding sites, were obtained from Invivogen (HEK-Blue™ hTLR7, cat #Hkb-ht1r7; HEK-Blue™ hTLR8, cat #Hkb-ht1r8). Stimulation of hTLR7 or hTLR8 in these cells activates NF-κB and AP-1 and induces the production of SEAP which can be quantified using an alkaline phosphatase detection reagent.
Cells were maintained in Dulbecco's Modified Eagle Media (DMEM) (containing Fetal Bovine Serum (FBS) heat inactivated (10%), Glutamax (2 mM), Penicillin/Streptomycin, Blasticidin (10 μg/ml), Zeocin (100 μg/ml) and Normocin (100 μg/ml)). On day one of the assay, Examples were prepared using 11-point half-log serial dilutions from a 10mM DMSO stock solution and 50 nl was spotted into 384-well Viewplates (PerkinElmer, cat #6007480). Positive control TLR7/8 agonist and negative control (DMSO, no Example) were also spotted within the assay plate and were used to determine percent effect during the analysis process. After resuspension in DMEM assay media containing FBS heat inactivated (10%), Glutamax (2 mM) and Penicillin/Streptomycin, 10,000 cells/20 μl/well were added to previously prepared plates. Plates were incubated overnight (16-20 hrs) at 37° C. in a 5% CO2 environment. Prewetted Microclime lids (Labcyte, LLS-0310) were used to prevent evaporation. On day two of the assay, QUANTI-Blue™ detection reagent was prepared by reconstituting QUANTI-Blue™ powder (InvivoGen, Rep-qb1) with 100 ml of sterile water and allowed to equilibrate to 37° C. for 15 minutes. 20 μl of QUANTI-Blue™ detection reagent was added to each well and plates were incubated at room temperature for 180 min. At the end of the incubation, plates were read on an Envision (Perkin Elmer) plate reader capturing absorbance at 650 nm.
Using Positive (TLR7/8 agonist) and Negative (DMSO) controls, the percent (%) effect was calculated for each Example using the following equation: effect=100−[100*{(Example−Positive Control)/(Negative Control−Positive Control)}]
The % effect at each concentration of each Example was calculated utilizing the ABase software suite (IBDS) and was relative to the amount of SEAP produced in the positive and negative control wells contained within each assay plate. The concentrations and % effect values for each Example were fit using a 4-parameter logistic model in ABase and the concentration of each Example that produced 50% response (EC50) was calculated.

In turn, `CCOCc1nc2c(N)nc(C)c(C)c2n1CC(CC)(CO)CO` [Example 9, 2-((4-amino-2-(ethoxymethyl)-6,7-dimethyl-1H-imidazo[4,5-c]pyridin-1-yl)methyl)-2-ethylpropane-1,3-diol] returned an EC50 of 1440 nM. In the case of `CCCCc1nc2c(N)nc3ccccc3c2n1CC(C)(CO)CO` [Example 10, 2-((4-amino-2-butyl-1H-imidazo[4,5-c]quinolin-1-yl)methyl)-2-methylpropane-1,3-diol] it was 92 nM; in that of `CCCCc1nc2c(N)nc3c(c2n1CC(C)(CO)CO)CCC3` [Example 14, 2-((4-amino-2-butyl-7,8-dihydrocyclopenta[b]imidazo[4,5-d]pyridin-1(6H)-yl)methyl)-2-methylpropane-1,3-diol], 247 nM; in that of `CCc1nc2c(N)nc3ccccc3c2n1CC(C)(CO)CO` [Example 15, 2-((4-amino-2-ethyl-1H-imidazo[4,5-c]quinolin-1-yl)methyl)-2-methylpropane-1,3-diol], 613 nM. The compound `CCCCc1nc2c(N)nc3c(c2n1CC(C)(CO)CO)CCCC3` [Example 13, 2-((4-amino-2-butyl-6,7,8,9-tetrahydro-1H-imidazo[4,5-c]quinolin-1-yl)methyl)-2-methylpropane-1,3-diol] returned an EC50 of 104 nM. The same measure for `Cc1nc(N)c2nc(CC(F)(F)F)n(CC(C)(CO)CO)c2c1C` [Example 8, 2-((4-amino-6,7-dimethyl-2-(2,2,2-trifluoroethyl)-1H-imidazo[4,5-c]pyridin-1-yl)methyl)-2-methylpropane-1,3-diol]: 8020 nM. The same measure for `CCOCc1nc2c(N)nc3ccccc3c2n1CC(C)(CO)CO` [Example 3, 2-((4-amino-2-(ethoxymethyl)-1H-imidazo[4,5-c]quinolin-1-yl)methyl)-2-methylpropane-1,3-diol]: 194 nM. The same measure for `CCOCc1nc2c(N)nc(C)c(C)c2n1CC(C)(CO)CO` [Example 2, 2-((4-amino-2-(ethoxymethyl)-6,7-dimethyl-1H-imidazo[4,5-c]pyridin-1-yl)methyl)-2-methylpropane-1,3-diol]: 811 nM; for `CCCc1nc2c(N)nc3ccccc3c2n1CC(C)(CO)CO` [Example 16, 2-((4-amino-2-propyl-1H-imidazo[4,5-c]quinolin-1-yl)methyl)-2-methylpropane-1,3-diol]: 325 nM. `CCOCc1nc2c(N)nc(C)c(C)c2n1CC(CO)CO` [Example 1, 2-((4-amino-2-(ethoxymethyl)-6,7-dimethyl-1H-imidazo[4,5-c]pyridin-1-yl)methyl)propane-1,3-diol] showed an EC50 of 2550 nM. In the case of `CCOCc1nc2c(N)nc(C)c(C)c2n1CC(C)(CO)COC` (single isomer, unassigned) [Example 7, 3-(4-amino-2-(ethoxymethyl)-6,7-dimethyl-1H-imidazo[4,5-c]pyridin-1-yl)-2-(methoxymethyl)-2-methylpropan-1-ol] it was 16500 nM; in that of `CCOCc1nc2c(N)nc(C)c(C)c2n1CC(C)(CO)COC` (single isomer, unassigned) [Example 6, 3-(4-amino-2-(ethoxymethyl)-6,7-dimethyl-1H-imidazo[4,5-c]pyridin-1-yl)-2-(methoxymethyl)-2-methylpropan-1-ol], 6400 nM.

One may read the EC50 as the concentration needed to bring the measured effect to its halfway point.
